The test system of one data set is microsomal FMOs in HLM. As to the kind of experiment: Incubation with HLM for FMO (pH 8.4, methimazole, heat). The class given is in vitro ADME, human. As to conditions: HLM pH 8.4, 1 mM methimazole. On the procedure:
MPZ, at 1.0 and 10.0 μM, was incubated with HLM or HKM to determine the contribution of microsomal FMOs on the metabolism of MPZ.
A reaction mixture containing KPi buffer (pH 8.4), HLM or HKM (0.5 mg/mL protein) and MPZ (1.0 and 10.0 μM) was pre-incubated for 3-5 minutes at 37° C. The reaction was initiated by the addition of NADPH into the reaction mixture. Reaction was conducted for 0 and 60 min. A positive control (benzydamine, 100 μM) was incubated in duplicate for 0 and 20 minutes. Parallel incubation was conducted by adding 1 mM methimazole, a non-specific FMO inhibitor, under identical conditions. Heat inactivated microsomes (50° C. for at least 5 minutes) was incubated under identical conditions negative control. All other procedures were the same as described previously.

Data set [1] relates to cytochrome P450 enzymes in HLM. Kind of data set: HLM incubation with CYP inhibitors, with and without NADPH. As to conditions: peak area ratio, 60 min, ABT 1 mM, quinidine 1 μM. On the procedure:
Initially, two sets of incubations were conducted with HLM (0.5 mg/mL microsomal protein), 1 and 1011M MPZ, 100 mM KPi buffer (pH 7.4) where one set was in the presence and the other set was in the absence of 1 mM ABT, a non-specific CYP inhibitor for 60 minutes. This allowed the assessment of total CYP contribution for MPZ metabolism. Then, CYP-specific chemical inhibitors were used to assess the contribution of individual major CYP-isoforms where HLM were incubated with 1 or 1011M MPZ in the presence and in the absence of each CYP specific inhibitor at 37° C. for 60 minutes. The following CYP-isoform specific chemical inhibitors were used; furafylline (10 μM), tranylcypromine (10 μM), montelucast (0.5 μM), sulfaphenazole (5 μM), (+) benzylnirvinol (5 μM), quinidine (1 μM) and itraconazole (2.5 μM), for CYP1A2, CYP2B6, CYP2C8, CYP2C9, CYP2C19, CYP2D6 and CYP3A4/5. Parallel incubation with seven CYP specific probe substrates were included in as positive controls. For negative control reaction, MPZ was incubated at 37° C. in duplicate in reaction mixture devoid of NADPH. All other procedures were the same as previously described.

The test system of data set [2] is human microsomal liver amidase. As to the kind of experiment: Incubations with HLM for microsomal hydrolase/amidase activity. The class given is in vitro ADME. As for the experimental part:
Incubations with HLM for Microsomal Hydrolase/Amidase Activity Prior to the reaction for amidase activity, the reaction mixture containing KPi buffer (pH 7.4, 8.4, or 9.4) and HLM was pre-incubated at 50° C. for 5 minutes to inactivate CYP and FMO activities in HLM. The mixture was placed on ice to cool down. An aliquot was taken out which was considered as t=0 min incubation. Then 10 μM MPZ was added into the remaining mixture and incubated at 37° C. on an orbital shaker for 60 minutes. A parallel set of incubations was conducted with 10 μM MPZ in the presence at 2 and 16 μM, of BNPP (a known inhibitor of amidase). All reactions were in triplicate. The total percentage of organic solvent in incubation mixture was ≤0.1%. The reactions were terminated by the addition of chilled acetonitrile: methanol, 90:10, (v/v). The samples were vortex-mixed and stored at ≤−70° C. and were subjected analyzed by LC MS/MS.

How the values of data set [3] were obtained: For protein concentration optimization, MPZ at 1 μM was incubated with varying concentration of HLM proteins (0.1, 0.25, 0.5, and 1.0 mg/mL microsomal protein), 100 mM KPi buffer (pH 7.4). After pre-incubation for 3-5 minutes at 37° C., the reaction was initiated by the addition of NADPH (1 mM) for 60 minutes in triplicates.
For incubation time optimization, MPZ at 1 μM was incubated with pooled HLM (0.5 mg/mL microsomal protein) and 100 mM KPi buffer (pH 7.4). After pre-incubation for) for 3-5 minutes at 37° C., the reaction was initiated by the addition NADPH (1 mM) incubated for 0, 10, 20, 40, 60, and 90 minutes to determine the optimal incubation time (linear range). All metabolic reactions in this study were terminated by the addition of chilled organic solvent (acetonitrile:ethanol 90:10, v/v) containing internal standards, unless otherwise indicated.
LC separation conditions were developed for MPZ and its metabolites (MPZA and MPZS), 7 hydroxycoumarin, each metabolite of CYP probe substrate, benzydamine N oxide, and phthalazine. The LC MS/MS system consisted of a Shimadzu Nexera X2 LC-30 UPLC system (Shimadzu Corporation, Kyoto, Japan), and an API 4000 triple quadrupole mass spectrometer (SCIEX, Framingham, MA) was used for analysis. All analytes were analyzed using electrospray ionization (ESI) in positive ion mode except for 7-EC, which used negative ion mode. The LC-MS/MS system was controlled by Analyst software (version 1.6.1, SCIEX, Framingham, MA).
For each analytical method, a calibration curve was generated for the quantification of MPZ and its two metabolites (MPZA and MPZS). […] PAR was also used for all positive control compounds.
% parent remaining=(mean concentration or PAR at each sampling time point/mean concentration or PAR of time zero)×100

Data set [4] in a line: Incubation of MPZ in human liver S9. As to conditions: human liver S9, 60-minute incubation. The class given is in vitro ADME. On the procedure:
Initial experiment was conducted with S9 fractions from liver and intestine to assess the role of liver and intestinal enzymes in the metabolism of MPZ. The reaction mixture contained 2.5 μM MPZ, pooled human liver or intestine S9 fraction (1 mg/mL S9 protein), 100 mM KPi buffer (pH 7.4). The reaction mixture was pre-incubated for 3-5 min at 37° C. in a humidified incubator filled with 5% CO2 followed by the addition of NADPH (1 mM) to initiate the reaction. The reaction was incubated for 0 and 60 min. The total percentage of organic solvent in incubation mixture was <0.1%. The reactions were terminated by the addition of sample mixture of acetonitrile and ethanol (90:10, v/v). The positive control substrate, 7-EC, was incubated in triplicate in an identical manner as MPZ for S9 fractions.

The record followed here is patent US20240156832A1, “METHODS OF METABOLIZING METOPIMAZINE AND ITS SALTS” (Neurogastrx, Inc., priority 2020, published 2024).

Entries after “also recorded” stand apart in the source; their conditions may differ.

For `Cn1cc[nH]c1=S` [methimazole, reference compound], the “effect of FMO inhibitor on MPZA formation” value with microsomal FMOs in HLM is given as “not inhibited”.
For the molecule `C=C[C@H]1C[N@@]2CC[C@H]1C[C@@H]2[C@@H](O)c1ccnc2ccc(OC)cc12` [quinidine, reference compound], in data set [1], the “effect of CYP inhibitor on MPZH formation” value is listed as “inhibited formation of MPZH”.
For `O=[N+]([O-])c1ccc(OP(=O)(O)Oc2ccc([N+](=O)[O-])cc2)cc1` [BNPP, bis(4-nitrophenyl) phosphate], in data set [2] (BNPP 2 μM, HLM, 10 μM MPZ, even at the highest pH), the “activity (MPZA formation) inhibited” value is reported as “at least 97%”. Moreover, in data set [2] (BNPP 16 μM, HLM, 10 μM MPZ, all three pH values), the MPZA formation inhibited is listed as more than 99%. In addition, the “inhibition of MPZA formation in HLM (in words)” value in data set [2] (BNPP 2 and 16 μM, pH 7.4, 8.4, 9.4) is given as “dramatically inhibited the formation of MPZA in HLM; also recorded: effectively inhibits formation of MPZA under all conditions”.
As to metopimazine sulfoxide [MPZS], in data set [3], the “Peak Area at Time 0” value came out at 0 and the “Peak Area at Time 90 min” value is 59. Also, the metabolites formed result in data set [4] is on record as “formed”.
